Test results: patent US20230028659A1, “THERAPEUTIC COMPOSITIONS AND METHODS FOR PREVENTION AND TREATMENT OF DIASTOLIC DYSFUNCTION” (AMBETEX PTY LTD, priority 2019, published 2023)

Tests used:
Male C57BL6 mice [1] = experiment: Aβ42 administration study: GTT with glucose tracers, cardiac metabolism; format: in vivo
Procedure: Male C57BL6 mice were obtained from the Animal Resource Centre (Perth, Wash.) at 4 weeks of age and housed with 4 mice per cage on a 12 hr light/dark cycle at a temperature of 22° C. and a constant humidity with a normal rodent diet. At 12 weeks of age, mice were grouped according to body mass and composition, determined by EchoMRI. […] An i.p. glucose tolerance test (GTT) was performed on the final treatment day following an overnight fast. Mice were administered 2 g/kg lean mass of glucose including radioactive glucose tracers, prepared as follows. 100 μl of 1 μCi/μ1 glucose analogue, [^3H]-2-deoxyglucose (2-DOG), and 500 μl of 200 μCi/mL U-^14C glucose were evaporated to dryness before redissolving the radioactive tracers in 1 mL of 50% glucose. This produced a 50% glucose solution containing 100 μCi/mL [^3H]-2-DOG and 100 μCi/mL U-^14C glucose. The tail tip of each mouse was cut off and the blood glucose concentration of a blood sample was measured using an AccuCheck II glucometer (Roche). The GTT was initiated via intraperitoneal injection of the radiolabelled glucose solution (2 g/kg body weight, 10 uCi/animal) into the overnight-fasted mice. Further blood samples were taken at 15, 30, 45, 60 and 90 minutes after the injection for the measurement of blood glucose. Blood samples (30 μl) were also taken from the tail tip at each time point and diluted in 100 μl of saline. These samples were then centrifuged and the supernatant collected. 50 μl of the supernatant was diluted in 500 μl of distilled water and then suspended in 4 mL of Ultima Gold XR scintillation fluid (Packard Bioscience). Blood radioactivity was determined at each time point by performing liquid scintillation counting on each solution using the Beckman scintillation counter (LS6000 SC). At the conclusion of the GTT, mice were killed via cervical dislocation. Blood was obtained immediately following by cardiac puncture and the heart, and other tissues were immediately removed. Hearts were washed in ice cold PBS and weighed prior to being snap frozen in liquid nitrogen. The heart (30 mg), epididymal fat pad (30 mg and quadriceps skeletal muscle (30 mg) were homogenised in 1.5 ml of distilled water. The homogenate was centrifuged at 3000 rpm for 10 min at 4° C. 400 μl of the supernatant was diluted into 1.6 mL of distilled water and then suspended in 14 mL of Ultima Gold XR scintillation fluid (Packard Bioscience). The radioactivity of each sample (from both [^3H]-2-DOG6P and [^3H]-2-DOG) was determined by liquid scintillation counting using the Beckman scintillation counter (LS6000 SC).
The ^3H radioactivity was used to measure glucose uptake into each tissue.
To determine the incorporation of U-^14C glucose into triglyceride and the total triglyceride content in the heart, an extraction of triglyceride was carried out using a chloroform/methanol mixture. Samples of heart (30 mg) were hand-homogenised in 2 mL of chloroform/methanol (2:1) and the homogeniser rinsed in a further 2 mL of chloroform/methanol (2:1), and the washings being added to the original extract in 10 mL tubes. The tubes were tightly capped and mixed on a rotator overnight to maximise extraction of the triglycerides. […] The amount of U-^14C glucose clearance into the lipid fraction was measured by suspending 100 μl of the triglyceride solution in 5 mL of Ultima Gold XR scintillation fluid (Packard Bioscience), followed by scintillation counting using the Beckman scintillation counter (LS6000 SC).

Male C57BL6 mice [2] = experiment: Aβ42 administration study: heart gene expression and western blotting (NLRP3 inflammasome, PKD); format: in vivo; details: chronic administration
Procedure: (§1) Total mRNA from the tissues was extracted by homogenizing ˜20-30 milligrams of tissue in 1 ml of Trizol followed by incubation at room temperature (RT) for 5 min. 200 μL of chloroform was added to the homogenate, shaken for 15 seconds and incubated for 1 min at RT before centrifuging at 12,000 g for 10 min at 4° C. for extracting the upper aqueous phase. An equal volume (350 μl for cell lysate/450 μL for tissue) of 70% ethanol was added to cell/tissue samples and they were further purified with RNeasy spin columns (the RNeasy®min i Kit, Qiagen). Complementary DNA (cDNA) was synthesised using the SuperScript™ III transcription system (Invitrogen). cDNA was quantified by OliGreen assay (Quant-iT™ OliGreen® ssDNA Assay Kit; Invitrogen). All primers were designed in-house using the Beacon Primer Designer program software and synthesised by Gene Works (Adelaide, Australia). Primer sequence efficiency was tested over a wide concentration range. Gene expression levels were quantified using the FastStart Universal SYBR Green Master (ROX; Roche Applied-Science) on the MX3005P™ Multiplex Quantitative PCR (QPCR) system (Stratagene). Log-transformed CT values were normalised to cDNA concentration to determine relative gene expression levels.
Approximately 20 mg of ventricle tissue was homogenised in ice-cold lysis buffer (50 mM Tris pH7.5, 1 mM EDTA, 1 mM EGTA, 10% glycerol, 1% triton X-100, 50 mM NaF, 5 mM Na4P2O7, 1 mM Na3VO4, 1 mM DTT, protease inhibitor cocktail) and protein content was determined using the BCA method. […] Blocked membranes were exposed to primary antibodies towards pro-caspase-1, mature caspase 1, total PKD, PKD phosphorylated at ser744 and 748 (Cell Signalling Technology, Danvers, USA) and α-tubulin (Sigma-Aldrich, St. Louis, USA). Membranes were visualised and bands quantified by using the ChemiDoc™ XRS+ with Image Lab™ software.

Male C57BL6 mice [3] = experiment: Aβ42 administration study: cardiac function by echocardiography; format: in vivo
Procedure: (§2) After 4 weeks of peptide administration, cardiac function was assessed by echocardiography as follows. Mice were anaesthetised with inhalation of 1.5% isoflurane anaesthesia and echocardiography was performed using the Phillips HD15 diagnostic ultrasound system with a 15 MHz linear-array transducer by an experienced veterinarian. The velocity of blood flow through the mitral valve was analysed using Doppler mode imaging. […] Doppler imaging was also utilised to measure the velocity of blood flow through the aortic valve. The measurements were then used to calculate the ejection time, peak aortic flow and heart rate. M-mode imaging of the left ventricle was used to measure the thickness of the inter-ventricular septum (IVS), left ventricular internal diameter (LVID) and left ventricular posterior wall (LVPW) in both diastole (d) and end-systole (s) as well as systolic measures such as ejection fraction and fractional shortening. An estimation of LV mass was calculated from the m-mode imaging by using the formula (1.05[LVIDd+LVPWd+IVSd]^3−[LVIDd]^3) by Troy et al. (1972). Mice were humanely killed by cervical dislocation 1 week later. Blood was obtained immediately following by cardiac puncture and the heart, and other tissues were immediately removed. Hearts were washed in ice cold PBS and weighed prior to being snap frozen in liquid nitrogen.

Male C57BL6 mice [4] = experiment: Aβ42 and mGluR5 NAM administration study; format: in vivo; details: Basimglurant 1 mg/kg oral gavage or vehicle plus Aβ42 i.p. once/day; for plasma Aβ42 compared with the ScrAβ42+Veh group: FIG. 9A; for Peak E wave compared with the ScrAβ42+Veh group: FIG. 9B
Procedure: as §2, with “Basimglurant (MedChemExpress) was resuspended in 100% DMSO before being diluted in a hydroxypropyl cellulose solution to give a final solution containing 0.25 mg/mL Basimglurant in 10% hydroxypropyl cellulose and 5% DMSO. A vehicle solution containing 10% hydroxypropyl cellulose and 5% DMSO was also made. Aliquots of both drug and vehicle were stored at −80° C. until required. Male C57BL6 mice were obtained from the Animal Resource Centre (Perth, Wash.) at 4 weeks of age and housed with 4 mice per cage on a 12 hr light/dark cycle at a temperature of 22° C. and a constant humidity with a normal rodent diet. At 12 weeks of age, mice were grouped according to body mass and composition, determined by EchoMRI. […] After 4” for “After 4”, “weeks of drug and peptide administration,” for “weeks of peptide administration,”, “the ejection time (LVET), peak aortic” for “the ejection time, peak aortic”, “al. (1972). The myocardial performance index (MPI), a global index of both diastolic and systolic cardiac function, was calculated using the formula ([IVCT+IVRT]/LVET), by Tei et al. (1995). Mice were” for “al. (1972). Mice were”

Male C57BL6 mice [5] = experiment: Aβ40 administration study; format: in vivo; set-up: dose or concentration left out as unconfirmed; details: i.p. for 5 weeks vs ScrAβ40, FIG. 11A
Procedure: Aβ40 administration study: Lyophilised recombinant Aβ40 (Millipore) and scrambled control peptide (ScrAβ40; Millipore) were resuspended in 1% NH4OH and aliquoted at 200 ng/ml in H2O and stored at −80° C. for no longer than 4 weeks. Male C57BL6 mice were obtained from the Animal Resource Centre (Perth, Wash.) at 4 weeks of age and housed with 4 mice per cage on a 12 hr light/dark cycle at a temperature of 22° C. and a constant humidity with a normal rodent diet. At 12 weeks of age, mice were grouped according to body mass and composition, determined by EchoMRI. […] After 4 weeks of peptide administration, cardiac function was assessed by echocardiography as follows. Mice were anaesthetised with inhalation of 1.5% isoflurane anaesthesia and echocardiography was performed using the Phillips HD15 diagnostic ultrasound system with a 15 MHz linear-array transducer by an experienced veterinarian. The velocity of blood flow through the mitral valve was analysed using Doppler mode imaging. […] Doppler imaging was also utilised to measure the velocity of blood flow through the aortic valve. […] An estimation of LV mass was calculated from the m-mode imaging by using the formula (1.05 [LVIDd+LVPWd+IVSd]^3−[LVIDd]^3) by Troy et al. (1972). […] Plasma […] was measured using a high sensitivity ELISA kit (Wako Diagnostics) and plasma that was diluted 1:10 with assay buffer.

[6] = tested on: mice on HFD (established obesity); experiment: Basimglurant-High Fat Diet (HFD) treatment study; format: in vivo; details: obese mice
Procedure: Basimglurant-High Fat Diet (HFD) treatment study: At 12 weeks of age, mice (n=30) were placed on a HFD with 43% of calories from fat (23.5% by weight; SF04-001 High Fat Rodent Diet Based on D12451, Specialty Feeds, Glen Forrest, Wash.). After 13 weeks of the diet period, echocardiography was performed on all mice to obtain pre-drug treatment measures of cardiac function. Mice were allocated to treatment groups so that measures of cardiac function and morphology were matched as best as possible. Basimglurant (MedChemExpress) was resuspended in 100% DMSO before being diluted in a hydroxypropyl cellulose solution to give a final solution containing 0.25 mg/mL Basimglurant in 10% hydroxypropyl cellulose and 5% DMSO. A vehicle solution containing 10% hydroxypropyl cellulose and 5% DMSO was also made. Aliquots of both drug and vehicle were stored at −80° C. until required. The HFD/Basimglurant group was administered 1 mg/kg of Basimglurant per day by oral gavage, while the HFD/control group received an equivalent volume of vehicle. Echocardiography was then performed following 4 weeks of the treatment period to obtain post-drug treatment measures of cardiac function. Following 5 weeks of the drug administration, mice were humanely killed via cervical dislocation and blood was immediately obtained via cardiac puncture and stored in a heparinised tube. […]

[7] = tested on: Primary mouse neonatal ventricular cardiomyocytes; experiment: Neonatal ventricular cardiomyocyte experiments, antagonist studies (gene expression); format: cell-based; details: 10 uM, cardiomyocytes exposed to Aβ42, FIG. 6B
Procedure: as §1, with “Primer sequence efficiency was tested over a wide concentration range.” left out, “Log-transformed CT values were normalised to cDNA concentration to determine relative gene expression levels.” left out
Neonatal ventricular cardiomyocyte experiments: Primary mouse neonatal ventricular cardiomyocytes were isolated from one day old neonate mice. […] 48 hr after infection, cells were harvested and homogenized in protein lysis buffer, total protein concentration was determined and western blotting was performed, as described above. […]

Aβ42: Lyophilised recombinant Aβ42 (Millipore), amyloid beta peptide of 42 amino acids
whole body glucose tolerance or plasma insulin throughout the GTT (Male C57BL6 mice [1]; after five weeks of peptide, vs ScrAβ42): no difference | glucose incorporation into TAG (14C-glucose labelling) (Male C57BL6 mice [1]; heart, FIG. 1C): greater | total TAG (Male C57BL6 mice [1]; heart, FIG. 1D): increased | cardiac gene expression (inflammation, endoplasmic reticulum stress) (Male C57BL6 mice [1]; heart, FIG. 1E): gene expression changes indicative of cardiac stress responses | increase in plasma Aβ42 compared with administration of ScrAβ42 (Male C57BL6 mice [1]; i.p. 1 μg/day for five weeks, FIG. 1A): approximately 3 fold | phosphorylation of PKD at ser744 and 748 (Male C57BL6 mice [2]; FIG. 6A): increased | expression of genes associated with priming of the NLRP3 inflammasome (Nlrp3, Ifna, Il18) (Male C57BL6 mice [2]; heart, FIG. 5A): increased | mature caspase 1 (Male C57BL6 mice [2]; western blot, FIG. 5B): increased | pro-caspase 1 (Male C57BL6 mice [2]; western blot, FIG. 5B): increased | deceleration time (Male C57BL6 mice [3]; echocardiography, vs ScrAβ42, FIG. 2D): increased | E normalised by isovolumetric relaxation time (IVRT) (Male C57BL6 mice [3]; echocardiography, vs ScrAβ42, FIG. 2E): no significant difference | fractional shortening (Male C57BL6 mice [3]; echocardiography, vs ScrAβ42, FIG. 2F): reduced | ejection fraction (Male C57BL6 mice [3]; echocardiography, vs ScrAβ42, FIG. 2G): reduced | gross heart weight (Male C57BL6 mice [3]; five weeks of peptide vs ScrAβ42, FIG. 2A): no effect | internal dimensions of the left ventricle (LVIDd) (Male C57BL6 mice [3]; five weeks of peptide vs ScrAβ42, FIG. 2B): no effect | plasma Aβ42 compared with the ScrAβ42+Veh group (Male C57BL6 mice [4]): elevated | Peak E wave compared with the ScrAβ42+Veh group (Male C57BL6 mice [4]; echocardiography after 4 weeks): reduced

Aβ40: Lyophilised recombinant Aβ40 (Millipore), amyloid beta peptide
plasma Aβ40 (Male C57BL6 mice [5]): significantly increased

Cc1nc(C#Cc2ccnc(Cl)c2)c(C)n1-c1ccc(F)cc1 [Basimglurant]
DT after treatment ([6]; 13 weeks HFD then 4 weeks daily 1 mg/kg oral gavage, FIG. 12A): 100 % of baseline levels | plasma Aβ42 levels ([6]; daily 1 mg/kg oral gavage, FIG. 12B): did not have any effect | plasma Aβ42 compared with the ScrAβ42+Veh group (Male C57BL6 mice [4]): significantly increased | Peak E wave compared with the ScrAβ42+Veh group (Male C57BL6 mice [4]; echocardiography after 4 weeks): reduced in the Aβ42+Veh group, but not in the Aβ42+Basimglurant groups | myocardial performance index (MPI) compared with the ScrAβ42+Veh group (Male C57BL6 mice [4]; echocardiography after 4 weeks, FIG. 9C): increased in the Aβ42+Veh group, but not in the Aβ42+Basimglurant groups

O=C1NCCCc2c1oc1ccc(O)cc21 [CID755673]
Aβ42-induced increase in inflammatory gene expression [7]: prevented
